In PMC6426982, “Anti-alcohol abuse drug disulfiram inhibits human PHGDH via disruption of its active tetrameric form through a specific cysteine oxidation” (Scientific Reports, 2019):
Numbering of substitutions follows the chain as printed. Read-outs that look alike come from different tables or passages of the source. Each block holds one compound with its values, some of them ahead of it.

Experiments:
human PHGDH (wild type) [1] = molecular target: T1, human PHGDH (wild type) (Homo sapiens, UniProt O43175); experiment: PHGDH isolated enzyme inhibition assay (NADH fluorescence), wild type; format: biochemical
T1 construct: peptides including 12 out of the 13 Cys residues of the full length PHGDH could be identified and tracked; made in house; host or cells: Escherichia coli BL21
T1 sequence (O43175 1-533): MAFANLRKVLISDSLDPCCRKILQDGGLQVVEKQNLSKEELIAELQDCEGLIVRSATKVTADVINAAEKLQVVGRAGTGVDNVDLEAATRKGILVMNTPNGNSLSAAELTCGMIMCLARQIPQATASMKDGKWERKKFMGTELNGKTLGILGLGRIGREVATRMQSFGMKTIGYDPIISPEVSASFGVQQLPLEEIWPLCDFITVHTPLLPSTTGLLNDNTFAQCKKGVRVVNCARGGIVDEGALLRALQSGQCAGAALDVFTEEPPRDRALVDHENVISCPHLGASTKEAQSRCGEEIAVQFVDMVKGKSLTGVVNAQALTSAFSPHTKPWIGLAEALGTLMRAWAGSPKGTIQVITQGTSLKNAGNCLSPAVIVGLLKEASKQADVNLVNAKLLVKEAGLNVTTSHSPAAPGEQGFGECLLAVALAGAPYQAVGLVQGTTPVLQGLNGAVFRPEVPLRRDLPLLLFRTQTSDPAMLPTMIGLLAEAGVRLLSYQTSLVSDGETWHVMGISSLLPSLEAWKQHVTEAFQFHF
Method: Enzymatic assay was adapted from a previously described procedure. […] Assays were performed in PHGDH assay buffer (50 mM Tris, pH 8.5, and 1 mM EDTA). […] The final concentration of DMSO in the assay mixture was set to 5%.
pET28a human PHGDH and pET28a human C116S PHGDH were transformed into BL21 Escherichia coli. A single colony was grown to an OD600 0.6 in 1 L of Luria broth. Protein expression was induced with 1 mM isopropyl thiogalactopyranoside (IPTG). […] Pellets were resuspended in 60 mL of lysis buffer (50 mM Tris, pH 8.5, 10 mM MgCl2, 300 mM NaCl, 10% glycerol, 5 mM imidazole) and sonicated, and cell debris were pelleted by centrifugation (20,000 × g, 30 min). The supernatant was collected and purified using Akta purifier on HisTrap^TM FF column (GE Healthcare). […] Fraction protein content was measured via a Bradford assay. […] Protein purity was assessed via SDS/PAGE and Coomassie staining.

UM-UC-3-PHGDH+ cells = experiment: Cell proliferation inhibition (Presto Blue), PHGDH-expressing cells; format: cell-based, human
Method: (§1) UM-UC-3 (PHGDH+ and PHGDH-) bladder cancer cells were purchased from the ATCC and cultured in DMEM medium supplemented with 10% heat-inactivated Fetal Bovine Serum (FBS) and 1% penicillin/streptomycin. Cells were seeded at 2500 cells/well in 96-well plates in serine depleted media (MEM). DSF or vehicle (DSMO) was added and cells were grown for 48 hours. Viability was assessed using Presto Blue reagent (Life Technologies) according to manufacturer’s instructions.

PHGDH [2] = molecular target: T2, PHGDH (Homo sapiens, UniProt O43175); experiment: Cross-linking experiment with BS3 (oligomeric state); details: DSF 1-500 µM, 30 min, BS3 cross-linker
T2 construct: peptides including 12 out of the 13 Cys residues of the full length PHGDH could be identified and tracked; made in house; host or cells: Escherichia coli BL21
T2 sequence (O43175 1-533): T1 sequence (O43175 1-533)
Method: PHGDH (3 μg) was incubated with DSF (1 µM, 5 µM, 10 µM, 50 μM, 100 μM, 250 µM, 500 μM) or vehicle control (DMSO) in 25 mM HEPES, pH 7.3, and 1 mM NAD^+ in 18 μL total volume for 30 min on ice. BS3 (S5799; Sigma) cross-linker dissolved in PBS was added to a final concentration of 5 mM and incubated for 30 min under shaking at room temperature. The reaction was then quenched for 15 min by adding 1 M Tris, pH 7.5, to a final concentration of 28 mM. Cross-linked proteins were mixed with sample buffer, boiled for 5 min, and run on SDS/PAGE. Gels were stained with Gelcode blue stain reagent (24592; Thermo) overnight and destained according to the manufacturer’s instructions.

human PHGDH C116S mutant = molecular target: T3, human PHGDH C116S mutant (Homo sapiens, UniProt O43175, C116S); experiment: PHGDH enzyme inhibition assay, C116S mutant; format: biochemical
T3 construct: peptides including 12 out of the 13 Cys residues of the full length PHGDH could be identified and tracked; made in house; host or cells: Escherichia coli BL21
T3 sequence (O43175 1-533 C116S): T1 sequence (O43175 1-533) with C116S
Method: (§2) Enzymatic assay was adapted from a previously described procedure. NADH fluorescence emission (Ex 340 nm/Em 460 nm) was followed over time. Assays were performed in PHGDH assay buffer (50 mM Tris, pH 8.5, and 1 mM EDTA). Substrates and enzyme concentrations were as follows: 3-PG, 240 μM; NAD^+, 120 μM; glutamate, 30 mM; PHGDH, 12 ng/μL; PSAT1, 20 ng/μL. The final concentration of DMSO in the assay mixture was set to 5%.
pET28a human PHGDH and pET28a human C116S PHGDH were transformed into BL21 Escherichia coli. A single colony was grown to an OD600 0.6 in 1 L of Luria broth. Protein expression was induced with 1 mM isopropyl thiogalactopyranoside (IPTG). The culture was chilled on ice for 30 min, cultured for 18 h at room temperature and pelleted (6,000 g, 20 min). Pellets were resuspended in 60 mL of lysis buffer (50 mM Tris, pH 8.5, 10 mM MgCl2, 300 mM NaCl, 10% glycerol, 5 mM imidazole) and sonicated, and cell debris were pelleted by centrifugation (20,000 × g, 30 min). The supernatant was collected and purified using Akta purifier on HisTrap^TM FF column (GE Healthcare). […] Fraction protein content was measured via a Bradford assay. […] Protein purity was assessed via SDS/PAGE and Coomassie staining.

[3] = cited from earlier work
PHGDH [4] = molecular target: T2, PHGDH; experiment: Incubation assay (time-dependent PHGDH inhibition); format: biochemical; details: DSF 50 µM, 45 min incubation, 37 °C, Fig. 1A; read-out: PHGDH inhibition after incubation
Method: (§3) Figure 1 Characterization of PHGDH inhibition by DSF. Residual activity percentage of PHGDH (A) upon incubation with DSF (50 µM) for the indicated times and (B) after the rapid dilution assay experiment with DSF (50 µM). All experiments values were performed in triplicates at each compound dilution and error bars show the standard deviation. Data were collected at 37 °C with a PHGDH concentration of 12 ng/µL in 50 mM Tris and 1 mM EDTA at pH 8.5.
as §2

PHGDH [5] = molecular target: T2, PHGDH; experiment: Rapid dilution assay; format: biochemical; details: DSF 50 µM (Fig. 1B)
Method: as §3
Dilution experiment was conducted following a reported procedure. DSF (5 μM) or DMSO control was incubated with PHGDH for 45 min at 37 °C. Undiluted DSF (5 μM) was included as a positive control for inhibition.

UM-UC-3-PHGDH- cells = experiment: Cell proliferation inhibition (Presto Blue), cells not expressing PHGDH; format: cell-based; details: Homo sapiens, UMUC3, serine depleted media, 48 hours
Method: as §1

human PHGDH (wild type) [6] = molecular target: T1, human PHGDH (wild type); design: method as in PMID 28085281; details: drug screening campaign in the authors' lab; cited from earlier work
PHGDH cysteine residues = molecular target: T4, PHGDH cysteine residues (Homo sapiens, UniProt O43175); experiment: nanoUHPLC/MS of tryptic PHGDH peptides after DSF treatment (cysteine modification)
T4 construct: peptides including 12 out of the 13 Cys residues of the full length PHGDH could be identified and tracked; made in house; host or cells: Escherichia coli BL21
T4 sequence (O43175 1-533): T1 sequence (O43175 1-533)
Method: To unambiguously confirm this hypothesis and possibly identify the cysteine residues involved in this interaction, mass spectrometry experiments were undertaken. Briefly, PHGDH was incubated for 30 min with various concentrations of disulfiram (0.1x IC50, 1x IC50 and 10x IC50). At the end of the incubation, chloroacetamide was added and incubated 15′ in large excess in order to block the remaining free cysteines residues for the following analysis. The protein was separated from the medium (removal of the remaining chloroacetamide and DSF by liquid/liquid extraction with CHCl3/H2O) followed by trypsinization and analysis of the peptides by nanoUHPLC/MS.
Mass spectrometry experiments were carried out on an Orbitrap Lumos, following a previously reported procedure, with some modifications. A local protein database containing the human PHGDH sequence (accession Uniprot O43175) was used to process the obtained MS/MS data. Mass error was set to 15 ppm for precursor ions and 0.6 Da for fragment ions. Oxidation on Met; disulfiram, (+147.025 Da) and carbamidomethyl (+57.021 Da) were considered as variable modifications on Cys.

IC50 (human PHGDH (wild type) [1]; wild type PHGDH 12 ng/µL, 37 °C, pH 8.5, Fig. 2, read-out: PHGDH inhibition (IC50)): ~10000 nM | fold weaker IC50 compared to DSF (human PHGDH (wild type) [1]; wtPHGDH): about 16 fold
SMILES: CCN(CC)C(=S)[S][Cu][S]C(=S)N(CC)CC [CuET, bis(diethyldithiocarbamate)–copper]

decrease in inhibitory potency on C116S mutant versus wild type enzyme (human PHGDH C116S mutant): 20 fold | IC50 (human PHGDH C116S mutant; C116S mutant, Table 2): 10200 nM | inhibition at 50 µM (PHGDH [4]): 100% | PHGDH activity after rapid dilution of the enzyme/inhibitor complex (PHGDH [5]): not restored | Percentage of modified peptides, C111 (PHGDH cysteine residues; DSF 0.05 µM, peptide 91-119): 4.87% | Percentage of modified peptides, C116 (PHGDH cysteine residues; DSF 0.05 µM, peptide 91-119): 9.75% | Percentage of modified peptides, C111 (PHGDH cysteine residues; DSF 0.05 µM, peptide 92-119): 1.92% | Percentage of modified peptides, C116 (PHGDH cysteine residues; DSF 0.05 µM, peptide 92-119): 7.69% | Percentage of modified peptides, C116 (PHGDH cysteine residues; DSF 0.5 µM, peptide 91-119 (Ox M)): 7.14% | Percentage of modified peptides, C111 (PHGDH cysteine residues; DSF 0.5 µM, peptide 92-119): 6.67% | Percentage of modified peptides, C116 (PHGDH cysteine residues; DSF 0.5 µM, peptide 92-119): 46.67% | Percentage of modified peptides, C111 (PHGDH cysteine residues; DSF 5 µM, peptide 91-119): 4.16% | Percentage of modified peptides, C116 (PHGDH cysteine residues; DSF 5 µM, peptide 91-119): 50.00% | Percentage of modified peptides, C111 (PHGDH cysteine residues; DSF 5 µM, peptide 92-119): 10.34% | Percentage of modified peptides, C116 (PHGDH cysteine residues; DSF 5 µM, peptide 92-119): 39.65% | Percentage of modified peptides, C281 (PHGDH cysteine residues; DSF 5 µM, peptide 271-289): 1.26% | IC50 (human PHGDH (wild type) [1]; Wild Type PHGDH, Table 2, read-out: PHGDH inhibition (IC50)): 590 nM | IC50 (human PHGDH (wild type) [1]; purified PHGDH, triplicates, Table 1, read-out: PHGDH inhibition (IC50)): 590 nM | IC50 (human PHGDH (wild type) [1]; with Triton X 0.01%, Fig. S1B, read-out: IC50 on PHGDH WT): 490 nM | IC50 (human PHGDH (wild type) [1]; without Triton X, Fig. S1A, read-out: IC50 on PHGDH WT): 530 nM
SMILES: CCN(CC)C(=S)SSC(=S)N(CC)CC [DSF, bis(diethylthiocarbamoyl) disulfide]
IC50 (UM-UC-3-PHGDH+ cells; Homo sapiens, UMUC3, 48 h, UM-UC-3 +PHGDH, serine depleted media, 48 hours): 775 nM | difference in proliferation IC50 between PHGDH- and PHGDH+ cells (UM-UC-3-PHGDH+ cells; UM-UC-3-PHGDH- versus UM-UC-3-PHGDH+): ~ 5 fold | oligomeric state of PHGDH after DSF treatment (PHGDH [2]): concentration-dependent shift from the tetrameric to the dimeric, and to a lesser extent to the monomeric, form | Cmax ([3]; reported, read-out: maximum plasma concentration (Cmax)): 1280 nM | elimination half-life ([3]; single-dose administration of 250 mg of DSF): 7.3 h | IC50 (UM-UC-3-PHGDH- cells): 3640 nM | IC50 (human PHGDH (wild type) [6]): 590 nM
